Results reported in PMC4890880 (ACS infectious diseases, 2016).
Where two headings read alike, the source gives them in different places.

Test system: HepG2-A16-CD81EGFP cells
Conditions: for IC50: read-out: Tox_IC50, HepG2 cytotoxicity
[1] = sheet 2nd round, maximal inhibition in dose response
[2] = 2nd round, maximal inhibition in dose series

SMILES	IC50 (sheet 2nd round)	Tox_max_inhibition (%) [1]	other results
CC(C)(C)[S@+]([O-])N1Cc2cc(C(=O)NCC(F)(F)F)nc(-c3cccc(-c4cccc(F)c4)c3)c2[C@@H]1CCO [BRD-K14002526-001-01-8]	–	–	IC50 (sheet "2nd round"): > 10 µM; Tox_max_inhibition (%) (sheet "2nd round"): 37%
Cc1cc(C(=O)Nc2ccc3c(c2)C(=O)N(C)[C@@H]2CC[C@H](CC(=O)NCc4ccc(-c5ccccc5)cc4)O[C@@H]2CO3)no1 [BRD-K35841161-001-02-2]	> 10 µM	37%	–
O=C(Nc1ccccc1F)N1CCCCN2[C@H](CO)[C@H](c3ccc(/C=C/c4ccccc4)cc3)[C@@H]2C1 [BRD-K85670919-001-01-1]	> 10 µM	13%	–
CCCNC(=O)N1[C@H](C#N)[C@H](c2ccccc2-c2cccc(C)c2)[C@@H]1CO [BRD-K74392214-001-01-7]	> 10 µM	7.44%	–
C[C@@H]1CCCCO[C@@H](CN(C)Cc2ccc(Cl)c(Cl)c2)[C@@H](C)CN([C@@H](C)CO)C(=O)c2cc(NS(=O)(=O)c3cccs3)ccc2O1 [BRD-K97609851-001-01-5]	> 10 µM	39%	–
O=C(C[C@H]1C[C@H]2c3cc(NC(=O)c4ccc5c(c4)OCO5)ccc3O[C@H]2[C@H](CO)O1)NCc1ccc(Oc2ccccc2)cc1 [BRD-K67774729-001-02-1]	> 10 µM	24%	–
C[C@@H]1CN([C@@H](C)CO)C(=O)c2cccc(NC(=O)c3cnccn3)c2O[C@@H]1CN(C)Cc1ccc(-c2ccccc2)cc1 [BRD-K92545585-001-01-9]	> 10 µM	4.65%	–
Cc1ccccc1-c1ccc2c(c1)O[C@H](CN(C)C(=O)Nc1ccc(C(F)(F)F)cc1)[C@@H](C)CN([C@@H](C)CO)S2(=O)=O [BRD-K68538844-001-01-1]	> 10 µM	35%	–
Cc1ccc(S(=O)(=O)N(C)C[C@@H]2Oc3cc(C#CC4CCCC4)ccc3S(=O)(=O)N([C@@H](C)CO)C[C@H]2C)cc1 [BRD-K40215908-001-01-2]	–	–	Tox_max_inhibition (%) [2]: 34%; IC50 (2nd round, unit inferred): > 10 µM
C[C@H](CO)N1C[C@H](C)[C@H](CN(C)C(=O)Nc2ccc(C(F)(F)F)cc2)Oc2c(NC(=O)c3ccc(-c4nccs4)cc3)cccc2C1=O [BRD-K74949371-001-01-3]	> 10 µM	6.39%	–
N#C[C@H]1N[C@H](CO)[C@H]1c1ccc(C#CC2CCCCC2)cc1 [BRD-K74656908-001-01-6]	> 10 µM	6%	–
C[C@H]1CN([C@@H](C)CO)C(=O)c2cccc(NC(=O)c3ccc(-c4nccs4)cc3)c2O[C@H]1CN(C)C(=O)Nc1ccc(C(F)(F)F)cc1 [BRD-K73614094-001-01-0]	–	–	Tox_max_inhibition (%) [2]: 12%; IC50 (2nd round, unit inferred): > 10 µM
Cc1ccccc1-c1ccc([C@@H]2[C@H](CO)N3CCCCN(S(=O)(=O)Cc4ccccc4)C[C@@H]23)cc1 [BRD-K92048968-001-01-1]	> 10 µM	7%	–
N#C[C@H]1N[C@H](CO)[C@H]1c1ccc(C#Cc2ccccc2F)cc1 [BRD-K80648041-001-01-3]	> 10 µM	11%	–
CCCNC(=O)N1[C@H](CO)[C@H](c2ccc(C#Cc3cccc(F)c3)cc2)[C@@H]1C#N [BRD-K10089781-004-02-1]	> 10 µM	13%	–
N#C[C@H]1[C@@H](c2ccc(C3=CCCCC3)cc2)[C@@H](CO)N1C(=O)Nc1ccccc1F [BRD-K81680265-001-01-4]	–	–	Tox_max_inhibition (%) [2]: 11%; IC50 (2nd round, unit inferred): > 10 µM
O=C(NCC[C@H]1CC[C@H](NC(=O)c2ccccc2F)[C@@H](CO)O1)c1cnccn1 [BRD-K85850546-001-01-0]	> 10 µM	9%	–
COc1ccccc1NC(=O)N1C[C@@H]2N[C@H](C1)C2c1ccc(/C=C/c2ccccc2)cc1 (some centres unmarked) [BRD-K16425675-019-01-0]	> 10 µM	9%	–
C[C@@H]1CCCCO[C@@H](CN(C)C(=O)Nc2cccc3ccccc23)[C@H](C)CN([C@H](C)CO)C(=O)c2cc(NC(=O)CCC(F)(F)F)ccc2O1 [BRD-K78692607-001-01-1]	> 10 µM	10%	–
